Laboratory results published in ChEMBL document CHEMBL1201862, “PubChem BioAssay data set” (2004).
Values belong to the compound of their own block, whether it stands above or below them. Calls of active or inactive are those of the source.

Assays:
[1] = biological target: Peroxisome proliferator-activated receptor gamma/Nuclear receptor coactivator 1 (Homo sapiens, UniProt P37231); assay: (§1) TR-FRET dose response biochemical High Throughput Screening assay for agonists of the steroid receptor coactivator 1 (SRC-1) recruitment by the peroxisome proliferator-activated receptor gamma (PPAR gamma): non-selective agonists. [Related pubchem assays (depositor defined):AID1300, AID1808, AID504735, AID631]; type: protein assay
[2] = biological target: Peroxisome proliferator-activated receptor gamma/Nuclear receptor coactivator 3 (Homo sapiens, UniProt P37231); assay: as §1, with “3 (SRC-3)” for “1 (SRC-1)”, “assays: 1301 (Confirmation screen.), 1048 (Primary screen.)]” for “assays (depositor defined):AID1300, AID1808, AID504735, AID631]”; type: functional
Chain of Peroxisome proliferator-activated receptor gamma/Nuclear receptor coactivator 3 (P37231 whole entry): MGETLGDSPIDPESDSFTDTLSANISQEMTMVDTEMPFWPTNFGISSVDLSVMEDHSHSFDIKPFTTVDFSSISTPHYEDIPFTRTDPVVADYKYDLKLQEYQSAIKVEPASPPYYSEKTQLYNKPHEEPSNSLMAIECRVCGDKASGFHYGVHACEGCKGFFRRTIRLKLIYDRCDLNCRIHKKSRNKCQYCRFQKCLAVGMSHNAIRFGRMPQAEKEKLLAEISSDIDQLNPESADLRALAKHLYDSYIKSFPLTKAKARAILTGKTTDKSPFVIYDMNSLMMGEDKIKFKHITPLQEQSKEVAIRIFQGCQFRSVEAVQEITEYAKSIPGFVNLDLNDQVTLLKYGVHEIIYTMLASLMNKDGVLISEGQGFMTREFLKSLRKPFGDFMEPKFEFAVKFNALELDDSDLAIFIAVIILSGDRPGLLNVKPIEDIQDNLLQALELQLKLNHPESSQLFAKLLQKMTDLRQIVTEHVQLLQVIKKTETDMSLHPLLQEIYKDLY
Chain of Peroxisome proliferator-activated receptor gamma/Nuclear receptor coactivator 3 (Q9Y6Q9 whole entry, further chain): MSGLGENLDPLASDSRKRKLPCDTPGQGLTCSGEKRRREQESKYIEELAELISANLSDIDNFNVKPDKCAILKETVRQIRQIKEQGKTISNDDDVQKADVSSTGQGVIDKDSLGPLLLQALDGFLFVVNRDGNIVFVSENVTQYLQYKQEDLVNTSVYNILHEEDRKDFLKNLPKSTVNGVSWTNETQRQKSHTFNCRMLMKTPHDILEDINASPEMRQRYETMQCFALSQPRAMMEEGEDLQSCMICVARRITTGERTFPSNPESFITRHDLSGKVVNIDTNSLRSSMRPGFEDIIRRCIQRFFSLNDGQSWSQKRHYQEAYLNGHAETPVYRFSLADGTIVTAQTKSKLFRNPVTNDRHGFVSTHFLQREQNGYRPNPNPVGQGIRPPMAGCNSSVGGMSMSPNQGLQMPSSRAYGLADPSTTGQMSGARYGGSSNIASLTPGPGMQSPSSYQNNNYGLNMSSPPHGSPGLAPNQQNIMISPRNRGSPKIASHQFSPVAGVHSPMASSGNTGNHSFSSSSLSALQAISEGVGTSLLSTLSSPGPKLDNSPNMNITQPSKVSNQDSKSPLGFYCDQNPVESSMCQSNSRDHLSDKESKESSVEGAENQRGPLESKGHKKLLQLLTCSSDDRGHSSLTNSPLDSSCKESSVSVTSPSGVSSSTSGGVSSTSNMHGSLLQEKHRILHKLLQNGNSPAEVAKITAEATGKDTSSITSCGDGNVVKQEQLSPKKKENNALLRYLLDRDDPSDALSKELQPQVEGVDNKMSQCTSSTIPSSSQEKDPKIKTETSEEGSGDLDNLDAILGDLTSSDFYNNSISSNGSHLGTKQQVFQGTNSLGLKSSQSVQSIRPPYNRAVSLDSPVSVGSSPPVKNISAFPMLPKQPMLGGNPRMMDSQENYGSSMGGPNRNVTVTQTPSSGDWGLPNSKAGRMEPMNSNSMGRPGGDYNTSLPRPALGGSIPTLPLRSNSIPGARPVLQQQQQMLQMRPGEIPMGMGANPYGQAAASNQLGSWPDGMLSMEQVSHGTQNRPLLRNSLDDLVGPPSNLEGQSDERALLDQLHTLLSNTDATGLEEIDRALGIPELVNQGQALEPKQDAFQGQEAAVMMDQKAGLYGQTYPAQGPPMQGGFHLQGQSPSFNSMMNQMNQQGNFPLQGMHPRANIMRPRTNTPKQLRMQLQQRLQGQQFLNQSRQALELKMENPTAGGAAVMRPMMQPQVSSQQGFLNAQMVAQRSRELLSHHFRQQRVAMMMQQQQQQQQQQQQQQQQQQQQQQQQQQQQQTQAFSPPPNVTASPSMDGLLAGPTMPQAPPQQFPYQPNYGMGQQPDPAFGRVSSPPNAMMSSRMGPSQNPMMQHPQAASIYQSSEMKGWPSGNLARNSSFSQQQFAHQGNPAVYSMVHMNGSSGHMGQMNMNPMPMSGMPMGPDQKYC

[3] = biological target: Peroxisome proliferator-activated receptor gamma/Nuclear receptor coactivator 2 (Homo sapiens, UniProt P37231); assay: TR-FRET dose response biochemical High Throughput Screening assay for agonists of the steroid receptor coactivator 2 (SRC-2) recruitment by the peroxisome proliferator-activated receptor gamma (PPAR gamma): non-selective agonists. [Related pubchem assays: 1297, 1032 ]; type: functional
Chain of Peroxisome proliferator-activated receptor gamma/Nuclear receptor coactivator 2 (P37231 whole entry): as the sequence (P37231 whole entry) above
Chain of Peroxisome proliferator-activated receptor gamma/Nuclear receptor coactivator 2 (Q15596 whole entry, further chain): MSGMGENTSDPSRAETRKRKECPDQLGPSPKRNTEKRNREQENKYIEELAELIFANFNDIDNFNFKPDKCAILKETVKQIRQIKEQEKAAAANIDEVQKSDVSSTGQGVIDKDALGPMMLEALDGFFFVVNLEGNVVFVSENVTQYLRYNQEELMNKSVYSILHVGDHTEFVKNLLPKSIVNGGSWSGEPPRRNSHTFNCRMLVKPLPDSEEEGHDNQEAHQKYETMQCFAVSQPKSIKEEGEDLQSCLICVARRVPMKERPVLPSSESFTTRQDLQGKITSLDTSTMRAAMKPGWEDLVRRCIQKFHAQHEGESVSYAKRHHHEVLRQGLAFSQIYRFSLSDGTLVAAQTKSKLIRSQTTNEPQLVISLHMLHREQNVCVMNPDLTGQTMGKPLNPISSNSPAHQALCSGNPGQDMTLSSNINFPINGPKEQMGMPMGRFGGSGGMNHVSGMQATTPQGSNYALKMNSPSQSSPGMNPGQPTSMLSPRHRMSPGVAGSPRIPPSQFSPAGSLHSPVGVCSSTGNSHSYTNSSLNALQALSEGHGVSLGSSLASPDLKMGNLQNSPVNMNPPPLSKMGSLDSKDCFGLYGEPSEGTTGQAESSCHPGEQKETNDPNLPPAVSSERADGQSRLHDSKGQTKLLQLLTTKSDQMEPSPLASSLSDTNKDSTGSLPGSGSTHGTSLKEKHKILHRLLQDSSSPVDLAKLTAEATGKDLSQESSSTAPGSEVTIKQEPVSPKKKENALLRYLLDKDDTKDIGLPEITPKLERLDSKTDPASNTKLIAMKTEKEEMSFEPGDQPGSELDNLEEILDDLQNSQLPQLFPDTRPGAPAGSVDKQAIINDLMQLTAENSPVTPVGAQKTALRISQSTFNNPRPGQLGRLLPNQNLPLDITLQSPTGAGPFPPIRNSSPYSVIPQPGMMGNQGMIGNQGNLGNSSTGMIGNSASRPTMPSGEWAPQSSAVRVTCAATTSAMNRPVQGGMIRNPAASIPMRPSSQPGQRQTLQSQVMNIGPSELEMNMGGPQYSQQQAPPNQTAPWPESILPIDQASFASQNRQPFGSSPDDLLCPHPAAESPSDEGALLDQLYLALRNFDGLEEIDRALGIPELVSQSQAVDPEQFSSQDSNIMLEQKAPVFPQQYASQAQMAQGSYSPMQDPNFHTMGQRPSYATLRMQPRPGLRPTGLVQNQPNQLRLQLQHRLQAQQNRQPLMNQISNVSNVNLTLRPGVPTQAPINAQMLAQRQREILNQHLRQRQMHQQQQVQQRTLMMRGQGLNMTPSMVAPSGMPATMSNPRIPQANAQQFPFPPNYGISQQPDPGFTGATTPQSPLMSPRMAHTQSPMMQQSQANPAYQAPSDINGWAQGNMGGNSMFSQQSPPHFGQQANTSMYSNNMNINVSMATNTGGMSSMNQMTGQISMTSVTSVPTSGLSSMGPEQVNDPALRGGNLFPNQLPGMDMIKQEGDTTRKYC

Protein skinhead-1 = biological target: T1, Protein skinhead-1 (Caenorhabditis elegans, UniProt P34707); type: functional
T1 sequence (P34707 whole entry): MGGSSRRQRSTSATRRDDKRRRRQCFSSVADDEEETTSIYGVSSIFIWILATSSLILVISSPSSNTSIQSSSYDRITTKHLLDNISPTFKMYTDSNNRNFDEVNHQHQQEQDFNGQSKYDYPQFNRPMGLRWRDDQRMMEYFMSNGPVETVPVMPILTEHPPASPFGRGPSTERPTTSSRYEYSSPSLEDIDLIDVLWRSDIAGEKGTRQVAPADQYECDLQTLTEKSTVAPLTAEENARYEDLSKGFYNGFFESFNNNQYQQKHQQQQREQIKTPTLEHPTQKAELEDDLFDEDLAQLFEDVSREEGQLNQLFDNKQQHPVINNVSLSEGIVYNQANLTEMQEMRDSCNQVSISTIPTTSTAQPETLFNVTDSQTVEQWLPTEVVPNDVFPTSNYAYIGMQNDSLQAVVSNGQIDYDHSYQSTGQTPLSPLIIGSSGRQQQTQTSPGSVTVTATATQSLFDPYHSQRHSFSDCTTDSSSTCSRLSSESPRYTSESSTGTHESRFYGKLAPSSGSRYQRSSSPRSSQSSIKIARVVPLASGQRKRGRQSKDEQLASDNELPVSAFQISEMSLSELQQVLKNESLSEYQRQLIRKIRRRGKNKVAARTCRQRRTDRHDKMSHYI

[4] = biological target: DNA damage-inducible transcript 3 protein (Mus musculus, UniProt P35639); type: functional, Cricetulus griseus
Chain of DNA damage-inducible transcript 3 protein (P35639 whole entry): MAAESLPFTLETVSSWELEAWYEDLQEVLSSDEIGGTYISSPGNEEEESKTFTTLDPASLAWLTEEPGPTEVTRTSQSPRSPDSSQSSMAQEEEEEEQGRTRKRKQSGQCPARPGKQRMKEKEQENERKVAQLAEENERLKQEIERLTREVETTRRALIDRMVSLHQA

[5] = biological target: Dual specificity tyrosine-phosphorylation-regulated kinase 1A (Rattus norvegicus, UniProt Q63470); type: biochemical, Homo sapiens
[6] = biological target: T2, DNA repair and recombination protein RAD54-like (Homo sapiens, UniProt Q92698); assay: inhibitors of human RAD54 branch migration, confirmation, biochemical, fluorescence, cherry-picked samples, dose series (AID 651657); type: functional
T2 sequence (Q92698 whole entry): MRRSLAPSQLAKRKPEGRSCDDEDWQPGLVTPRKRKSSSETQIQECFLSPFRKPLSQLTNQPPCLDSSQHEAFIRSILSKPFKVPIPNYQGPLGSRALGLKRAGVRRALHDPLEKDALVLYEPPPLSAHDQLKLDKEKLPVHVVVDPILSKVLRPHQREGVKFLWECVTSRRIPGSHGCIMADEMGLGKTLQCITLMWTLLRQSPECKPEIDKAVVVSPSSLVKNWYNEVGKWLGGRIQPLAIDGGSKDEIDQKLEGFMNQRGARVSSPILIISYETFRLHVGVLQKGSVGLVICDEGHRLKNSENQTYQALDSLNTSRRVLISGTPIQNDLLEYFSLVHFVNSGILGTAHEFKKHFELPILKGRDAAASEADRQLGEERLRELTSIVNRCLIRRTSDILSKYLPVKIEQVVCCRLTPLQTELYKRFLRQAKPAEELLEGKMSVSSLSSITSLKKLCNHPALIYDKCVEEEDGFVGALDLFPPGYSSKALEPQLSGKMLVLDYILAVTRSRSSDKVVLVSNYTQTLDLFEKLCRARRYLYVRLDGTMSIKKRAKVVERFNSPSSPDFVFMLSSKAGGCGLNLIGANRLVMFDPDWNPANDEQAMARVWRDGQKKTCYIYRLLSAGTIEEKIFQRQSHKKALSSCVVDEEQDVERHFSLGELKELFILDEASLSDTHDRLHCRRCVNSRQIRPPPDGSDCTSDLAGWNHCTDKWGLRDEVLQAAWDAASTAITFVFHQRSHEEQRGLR

[7] = biological target: Endoplasmic reticulum aminopeptidase 1 (Homo sapiens, UniProt Q9NZ08); assay: ERAP1 aminopeptidase inhibitors, dose response, biochemical, cherry-pick, set 2, plate reader (AID 743314)
[8] = NIH-3T3 fibroblast cytotoxicity, dose response, cytotoxicity control, cell-based, fluorescence, Alamar Blue, secondary assay (AID 2327); type: functional;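 also: NIH-3T3 mouse fibroblasts cultured with fluconazole at 8 µg/mL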
[9] = biological target: T3, Serine/threonine-protein phosphatase (Candida dubliniensis (strain CD36 / CBS 7987 / NCPF 3949 / NRRLY-17841) (Yeast), UniProt B9W6M3); assay: calcineurin pathway inhibitors in yeast reporter, dose response, S. cerevisiae, CDRE-lacZ, luminescence, secondary (AID 2388); type: functional, cell-based;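 also: yeast reporter cells carrying a calcineurin-responsive lacZ construct stimulated with calcium chloride; luminescent beta-galactosidase reporter signal in whole cells rather than isolated phosphatase activity; potency for inhibition where a drop in reporter signal means calcineurin blockade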
T3 sequence (B9W6M3 whole entry): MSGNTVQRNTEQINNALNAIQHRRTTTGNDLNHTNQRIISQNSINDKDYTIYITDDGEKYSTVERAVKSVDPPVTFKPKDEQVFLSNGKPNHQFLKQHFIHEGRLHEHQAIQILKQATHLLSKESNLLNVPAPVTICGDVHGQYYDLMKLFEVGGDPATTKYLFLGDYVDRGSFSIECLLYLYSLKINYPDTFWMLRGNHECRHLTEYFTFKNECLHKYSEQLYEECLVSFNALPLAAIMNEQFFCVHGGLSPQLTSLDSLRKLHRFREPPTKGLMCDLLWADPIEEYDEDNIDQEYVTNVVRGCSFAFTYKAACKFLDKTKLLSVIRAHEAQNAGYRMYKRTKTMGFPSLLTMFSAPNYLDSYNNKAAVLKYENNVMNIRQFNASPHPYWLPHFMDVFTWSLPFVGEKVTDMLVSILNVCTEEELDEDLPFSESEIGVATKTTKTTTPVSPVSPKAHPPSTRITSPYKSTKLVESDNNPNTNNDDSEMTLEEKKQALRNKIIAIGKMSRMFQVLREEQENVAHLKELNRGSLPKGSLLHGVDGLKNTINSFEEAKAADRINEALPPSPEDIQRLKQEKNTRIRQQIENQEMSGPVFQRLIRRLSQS

[10] = biological target: ATP-dependent molecular chaperone HSP82 (Candida albicans (strain WO-1) (Yeast), UniProt C4YTQ8); assay: loss of DOC-induced GRE-beta-galactosidase reporter signal, dose response, Hsp90 inhibitor project, S. cerevisiae, luminescence (AID 2400); type: functional, cell-based;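 also: beta-galactosidase luminescence from glucocorticoid response element reporter as proxy for Hsp90 function; inhibitor potency where signal loss means Hsp90 inhibition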
Chain of ATP-dependent molecular chaperone HSP82 (C4YTQ8 whole entry): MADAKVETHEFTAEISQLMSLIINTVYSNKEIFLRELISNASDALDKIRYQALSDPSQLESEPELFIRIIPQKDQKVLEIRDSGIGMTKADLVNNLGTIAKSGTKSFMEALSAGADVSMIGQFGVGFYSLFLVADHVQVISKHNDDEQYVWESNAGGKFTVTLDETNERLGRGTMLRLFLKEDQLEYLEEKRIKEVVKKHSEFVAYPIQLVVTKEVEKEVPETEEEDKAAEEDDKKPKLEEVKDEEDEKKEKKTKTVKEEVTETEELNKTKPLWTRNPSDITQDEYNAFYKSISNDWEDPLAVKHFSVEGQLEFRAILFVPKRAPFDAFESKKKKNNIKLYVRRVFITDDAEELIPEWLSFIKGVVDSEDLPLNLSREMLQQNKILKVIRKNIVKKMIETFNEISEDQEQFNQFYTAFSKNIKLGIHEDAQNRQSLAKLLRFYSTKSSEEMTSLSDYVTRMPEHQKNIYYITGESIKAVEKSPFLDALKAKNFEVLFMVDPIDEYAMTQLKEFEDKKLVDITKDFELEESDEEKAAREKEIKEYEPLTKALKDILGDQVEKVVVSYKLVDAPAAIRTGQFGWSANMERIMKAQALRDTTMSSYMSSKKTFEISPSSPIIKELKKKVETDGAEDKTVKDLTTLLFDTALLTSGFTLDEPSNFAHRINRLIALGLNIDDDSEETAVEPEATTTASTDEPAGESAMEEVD

[11] = C. albicans growth with fluconazole, confirmation, fluorescence, retest (AID 2467); type: functional, cell-based
cells [12] = type: functional, cell-based
[13] = biological target: T4, Microphthalmia-associated transcription factor (Homo sapiens, UniProt O75030); assay: TRPM1 promoter luciferase signal decrease, dose response, MITF inhibitor project, cell-based, SK-MEL-5, cherry-picked, set 3 (AID 493073); type: functional
T4 sequence (O75030 whole entry): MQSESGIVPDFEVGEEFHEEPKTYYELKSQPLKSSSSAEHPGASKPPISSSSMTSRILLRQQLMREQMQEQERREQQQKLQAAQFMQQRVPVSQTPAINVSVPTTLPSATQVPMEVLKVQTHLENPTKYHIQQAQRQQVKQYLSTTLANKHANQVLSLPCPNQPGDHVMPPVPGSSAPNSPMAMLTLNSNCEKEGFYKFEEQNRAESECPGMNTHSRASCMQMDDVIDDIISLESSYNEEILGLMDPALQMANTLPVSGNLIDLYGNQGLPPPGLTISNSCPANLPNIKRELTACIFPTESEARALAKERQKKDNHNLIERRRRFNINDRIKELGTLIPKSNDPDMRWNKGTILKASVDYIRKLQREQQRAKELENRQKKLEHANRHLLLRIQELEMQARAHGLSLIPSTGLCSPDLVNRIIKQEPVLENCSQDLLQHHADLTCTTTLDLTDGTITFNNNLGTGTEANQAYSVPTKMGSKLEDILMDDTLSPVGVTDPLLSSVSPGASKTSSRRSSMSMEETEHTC

cells [14] = type: functional, cell-based; remark: listed apart in the source
BJ [15] = assay: cells; type: functional, cell-based; conditions: Homo sapiens
[16] = cytotoxicity toward DRD oncogenic fibroblasts, dose response, cell-based, non-viral oncogenic, luminescence (AID 1934); type: functional; conditions: Homo sapiens
BJ [17] = assay: cytotoxicity toward BJ-TERT fibroblasts, dose response, cell-based, RAS-independent, luminescence (AID 1933); type: functional; conditions: Homo sapiens
INS1 = assay: beta cell apoptosis inhibitors, cytokine rescue, dose response, luminescence, retest (AID 449756); type: functional, cell-based; conditions: Rattus norvegicus;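 also: cell death triggered by IL-1 beta plus TNF-alpha plus IFN-gamma mixture; protective hits raise ATP signal compared with cytokine alone wells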
BJ [18] = assay: cytotoxicity toward BJ-TERT-LT-ST fibroblasts, dose response, cell-based, RAS-independent, luminescence (AID 1935); type: functional; conditions: Homo sapiens;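 also: BJ fibroblasts immortalized with TERT plus LT and ST oncogenes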

EC50 [1]: > 79.4 µM (inactive) | EC50 [2]: > 79.4 µM (not active) | EC50 [3]: > 79.4 µM (not active)
SMILES: CCn1c(=O)cc(SCC(=O)NCc2ccccn2)c2ccccc21

IC50 (Protein skinhead-1): > 100 µM (inactive)
SMILES: COC(=O)CN1C(=S)N(Cc2ccccc2)C(=O)C1CC(=O)Nc1ccc(Br)cc1 (centres undefined)
Absolute IC50 (CHOP) [4]: 10 µM

AC50 [5]: 2.06 µM (active)
SMILES: COc1cc(O)c2c(=O)c3c(O)c(O)ccc3oc2c1OC

AC50 [6]: 20.2 µM (active)
SMILES: O=C1c2cccc3cccc(c23)C(=O)N1CCCn1ccnc1

AC50 [7]: 8.13 µM (active)
SMILES: CC(=O)N1[C@@H]2Cn3c(ccc(/C=C/c4ccccc4)c3=O)[C@H]1[C@@H](C(=O)NCC1CC1)[C@@H]2CO

SMILES: O=C(N/N=C/c1cc([N+](=O)[O-])ccc1O)c1ccc(COc2ccc3c(c2)CCC3)o1
EC50 [8]: 11.6 µM (active) | EC50 [9]: > 180 µM (inactive) | EC50 [10]: 28.3 µM (active) | EC50 [11]: 1.19 µM (active)

SMILES: COc1ccc(O)c(/C=N/NC(=O)c2ccc(CSc3nc(C)cc(C)n3)cc2)c1
EC50 [8]: > 150 µM (inactive) | EC50 (cells [12]): 24 µM (active) | AC50 [13]: 9.31 µM (active) | EC50 (cells [14]): > 350 µM (not active) | EC50 (BJ [15]): 17.5 µM (inconclusive) | EC50 [16]: 27.7 µM (active) | EC50 (BJ [17]): 20.6 µM (active) | AC50 (INS1): 4.6 µM (active) | EC50 [11]: > 38 µM (not active) | EC50 (BJ [18]): > 75 µM (not active)

AC50 [5]: 0.038 µM (active)
SMILES: COc1ccc(/C=C2\SC(=N)NC2=O)cc1

AC50 [5]: 1.07 µM (active)
SMILES: O=C(Nc1ccc(Cl)cc1)Nc1ccc2c(c1)N1CCN=C1S2
